Fold induction data for 22 compounds are collected here from patent publication US12570988B2, “Aptamers that bind thiamine analogs and derivatives” (MeiraGTx Gene Regulation Limited, priority 2020, dated 2026).

Test [1] relates to riboswitch 15D10. The test can be described thus: Luciferase reporter with 15D10 riboswitch (Luci-15D10) in HEK 293 cells. Conditions: Homo sapiens, HEK293, 24 h, 50 μM; HEK 293 cells; Table 2; read-out: Fold increase in riboswitch 15D10-regulated luciferase expression, HEK. It counts as cell-based, human. The method, then:
Transfection: 3.5×10^4 human embryonic kidney (HEK) 293 cells were plated in a 96-well flat bottom plate the day before transfection. Plasmid DNA (500 ng) was added to a tube or a 96-well U-bottom plate. […] Then, 50 μL of this diluted transfection reagent was added to the DNA, mixed, and incubated at RT for 20 min. Finally, 7 μL of this solution was added to a well of cells in the 96-well plate. Four hours after transfection, medium containing transfection solution was replaced by medium containing either TPP, fursultiamine, prosultiamine, bisbentiamine, beclotiamine hydrochloride, or sulbutiamine as aptamer inducers.
Firefly luciferase assay of cultured cells: Twenty-four hours after media change, plates were removed from the incubator, and equilibrated to RT for several minutes on a lab bench, then aspirated. Glo-lysis buffer (Promega, 100 μL, RT) was added, and the plates allowed to remain at RT for at least 5 minutes. Then, the well contents were mixed by 50 μL trituration, and 20 μL of each sample was mixed with 20 μL of bright-glo reagent (Promega) that had been diluted to 10% in glo-lysis buffer. 96 wells were spaced on an opaque white 384-well plate. Following a 5 min incubation at RT, luminescence was measured using a Tecan machine with 500 ms read time. The luciferase activity was expressed as mean arbitrary light units (ALU)±S.D., and fold induction was calculated as the quotient of the luciferase activity obtained from cells with TPP or analog treatment divided by the luciferase activity obtained from cells without TPP or analog treatment.

The test system of test [2] is riboswitch 15D10. Nature of the test: Luciferase reporter with 15D10 riboswitch (Luci-15D10) in AML12 cells. It counts as cell-based, mouse. Particulars: Mus musculus, AML12, 24 h, 50 μM; AML12 cells; Table 2; read-out: Fold increase in riboswitch 15D10-regulated luciferase expression, AML.

Each structure is given as a SMILES string.

Take `C/C(=C(\CCO)SC(=O)c1c(Cl)cc(-c2ccccc2)cc1Cl)N(C=O)Cc1cnc(C)nc1N` [Compound M66, (Z)—S-(2-(N-((4-amino-2-methylpyrimidin-5-yl)methyl)formamido)-5-hydroxypent-2-en-3-yl) 3,5-dichloro-[1,1′-biphenyl]-4-carbothioate]: the fold induction at 50 µM in the test with riboswitch 15D10 [1] is 1.1; in the test on riboswitch 15D10 [2] it was 0.4.

With `C/C(=C(\CCO)SC(=O)c1c(C)cc(C(C)(C)C)cc1C)N(C=O)Cc1cnc(C)nc1N` [Compound M67, (Z)—S-(2-(N-((4-amino-2-methylpyrimidin-5-yl)methyl)formamido)-5-hydroxypent-2-en-3-yl) 4-(tert-butyl)-2,6-dimethylbenzothioate], the fold induction at 50 µM in the test on riboswitch 15D10 [1] is 2.1; in the test on riboswitch 15D10 [2] it was 0.9.

On to `C/C(=C(\CCO)SC(=O)c1ccc(-c2ccccc2)cc1Cl)N(C=O)Cc1cnc(C)nc1N` [Compound M68, (Z)—S-(2-(N-((4-amino-2-methylpyrimidin-5-yl)methyl)formamido)-5-hydroxypent-2-en-3-yl) 3-chloro-[1,1′-biphenyl]-4-carbothioate], for which the fold induction at 50 µM was found to be 303 with riboswitch 15D10 [1] and 209 with riboswitch 15D10 [2].

Regarding `C/C(=C(\CCO)SC(=O)c1cc(C(C)(C)C)cc(C(C)(C)C)c1)N(C=O)Cc1cnc(C)nc1N` [Compound M70, (Z)—S-(2-(N-((4-amino-2-methylpyrimidin-5-yl)methyl)formamido)-5-hydroxypent-2-en-3-yl) 3,5-di-tert-butylbenzothioate], the fold induction at 50 µM with riboswitch 15D10 [1] was 51; in the test with riboswitch 15D10 [2], 236.

Consider `C/C(=C(\CCO)SC(=O)c1cccc(-c2ccccc2)c1)N(C=O)Cc1cnc(C)nc1N` [Compound M72, (Z)—S-(2-(N-((4-amino-2-methylpyrimidin-5-yl)methyl)formamido)-5-hydroxypent-2-en-3-yl) [1,1′-biphenyl]-3-carbothioate], for which the fold induction at 50 µM in the test with riboswitch 15D10 [1] stood at 236; in the test with riboswitch 15D10 [2] it was 295.

For `C/C(=C(\CCO)SC(=O)c1ccc(Oc2ccccc2)cc1)N(C=O)Cc1cnc(C)nc1N` [Compound M73, (Z)—S-(2-(N-((4-amino-2-methylpyrimidin-5-yl)methyl)formamido)-5-hydroxypent-2-en-3-yl) 4-phenoxybenzothioate], the results for the fold induction at 50 µM with riboswitch 15D10 [1] and in the test with riboswitch 15D10 [2] were 205 and 200, respectively.

Consider `C/C(=C(\CCO)SC(=O)c1ccc2oc3ccccc3c2c1)N(C=O)Cc1cnc(C)nc1N` [Compound M76, (Z)—S-(2-(N-((4-amino-2-methylpyrimidin-5-yl)methyl)formamido)-5-hydroxypent-2-en-3-yl) dibenzo[b,d]furan-2-carbothioate], for which the values for the fold induction at 50 µM in the test on riboswitch 15D10 [1] and in the test with riboswitch 15D10 [2] were 60.7 and 134, respectively.

With `C/C(=C(\CCO)SC(=O)c1ccc2sccc2c1)N(C=O)Cc1cnc(C)nc1N` [Compound M79, (Z)—S-(2-(N-((4-amino-2-methylpyrimidin-5-yl)methyl)formamido)-5-hydroxypent-2-en-3-yl) benzo[b]thiophene-5-carbothioate], the fold induction at 50 µM in the test with riboswitch 15D10 [1] was 353; in the test on riboswitch 15D10 [2], 358.

Regarding `COCCOc1ccc(C(=O)S/C(CCO)=C(/C)N(C=O)Cc2cnc(C)nc2N)cc1` [Compound M82, (Z)—S-(2-(N-((4-amino-2-methylpyrimidin-5-yl)methyl)formamido)-5-hydroxypent-2-en-3-yl) 4-(2-methoxyethoxy)benzothioate], the fold induction at 50 µM in the test with riboswitch 15D10 [1] was found to be 89.2; with riboswitch 15D10 [2], 73.9.

On to `C/C(=C(\CCO)SC(=O)/C=C/c1ccc2ccccc2c1)N(C=O)Cc1cnc(C)nc1N` [Compound M88, S—((Z)-2-(N-((4-amino-2-methylpyrimidin-5-yl)methyl)formamido)-5-hydroxypent-2-en-3-yl) (E)-3-(naphthalen-2-yl)prop-2-enethioate], for which the fold induction at 50 µM in the test with riboswitch 15D10 [1] amounted to 216; in the test with riboswitch 15D10 [2], 355.

Regarding `C/C(=C(\CCO)SCOC(=O)c1cccc2ccccc12)N(C=O)Cc1cnc(C)nc1N` [Compound M97, (Z)-((2-(N-((4-amino-2-methylpyrimidin-5-yl)methyl)formamido)-5-hydroxypent-2-en-3-yl)thio)methyl 1-naphthoate], the fold induction at 50 µM came out at 299 in the test with riboswitch 15D10 [1] and 126 in the test with riboswitch 15D10 [2].

Regarding `C/C(=C(\CCO)SCOC(=O)c1cc2ccccc2c2ccccc12)N(C=O)Cc1cnc(C)nc1N` [Compound M98, (Z)-((2-(N-((4-amino-2-methylpyrimidin-5-yl)methyl)formamido)-5-hydroxypent-2-en-3-yl)thio)methyl phenanthrene-9-carboxylate], the fold induction at 50 µM stood at 13.6 in the test on riboswitch 15D10 [1] and 57.7 in the test with riboswitch 15D10 [2].

`C/C(=C(\CCO)SCOC(=O)c1ccc2c(c1)C(C)(C)CCC2(C)C)N(C=O)Cc1cnc(C)nc1N` [Compound M99, (Z)-((2-(N-((4-amino-2-methylpyrimidin-5-yl)methyl)formamido)-5-hydroxypent-2-en-3-yl)thio)methyl 5,5,8,8-tetramethyl-5,6,7,8-tetrahydronaphthalene-2-carboxylate]: the fold induction at 50 µM came to 0.2 in the test with riboswitch 15D10 [1] and 0.4 in the test with riboswitch 15D10 [2].

With `CCOc1ccc2ccccc2c1C(=O)OCS/C(CCO)=C(/C)N(C=O)Cc1cnc(C)nc1N` [Compound M100, (Z)-((2-(N-((4-amino-2-methylpyrimidin-5-yl)methyl)formamido)-5-hydroxypent-2-en-3-yl)thio)methyl 2-ethoxy-1-naphthoate], the figures for the fold induction at 50 µM in the test on riboswitch 15D10 [1] and in the test on riboswitch 15D10 [2] were 1.1 and 0.4, respectively.

On to `C/C(=C(\CCO)SCOC(=O)C(C)(C)Cc1ccc2ccccc2c1)N(C=O)Cc1cnc(C)nc1N` [Compound M101, (Z)-((2-(N-((4-amino-2-methylpyrimidin-5-yl)methyl)formamido)-5-hydroxypent-2-en-3-yl)thio)methyl 2,2-dimethyl-3-(naphthalen-2-yl)propanoate], for which the fold induction at 50 µM was 88.6 in the test on riboswitch 15D10 [1] and 128 in the test on riboswitch 15D10 [2].

As to `C/C(=C(\CCO)SCOC(=O)C(C)(c1ccccc1)c1ccccc1)N(C=O)Cc1cnc(C)nc1N` [Compound M103, (Z)-((2-(N-((4-amino-2-methylpyrimidin-5-yl)methyl)formamido)-5-hydroxypent-2-en-3-yl)thio)methyl 2,2-diphenylpropanoate], the fold induction at 50 µM in the test on riboswitch 15D10 [1] was 0.9; in the test on riboswitch 15D10 [2], 0.5.

Consider `C/C(=C(\CCO)SCOC(=O)C(c1ccccc1)(c1ccccc1)c1ccccc1)N(C=O)Cc1cnc(C)nc1N` [Compound M105, (Z)-((2-(N-((4-amino-2-methylpyrimidin-5-yl)methyl)formamido)-5-hydroxypent-2-en-3-yl)thio)methyl 2,2,2-triphenylacetate], for which the fold induction at 50 µM in the test on riboswitch 15D10 [1] and in the test on riboswitch 15D10 [2] was 0.2 in each case.

On to `C/C(=C(\CCO)SCOC(=O)C(C)(C)c1ccc2ccccc2c1)N(C=O)Cc1cnc(C)nc1N` [Compound M107, (Z)-((2-(N-((4-amino-2-methylpyrimidin-5-yl)methyl)formamido)-5-hydroxypent-2-en-3-yl)thio)methyl 2-methyl-2-(naphthalen-2-yl)propanoate], for which the fold induction at 50 µM in the test on riboswitch 15D10 [1] came out at 26; in the test on riboswitch 15D10 [2], 40.2.

Turning to `COc1ccc2c(C(=O)S/C(CCO)=C(/C)N(C=O)Cc3cnc(C)nc3N)cccc2c1` [Compound M108, (Z)—S-(2-(N-((4-amino-2-methylpyrimidin-5-yl)methyl)formamido)-5-hydroxypent-2-en-3-yl) 6-methoxynaphthalene-1-carbothioate], the fold induction at 50 µM with riboswitch 15D10 [1] was 75.8; in the test with riboswitch 15D10 [2], 129.

As for `CCOc1ccc(C(=O)S/C(CCO)=C(/C)N(C=O)Cc2cnc(C)nc2N)c2ccccc12` [Compound M109, (Z)—S-(2-(N-((4-amino-2-methylpyrimidin-5-yl)methyl)formamido)-5-hydroxypent-2-en-3-yl) 4-ethoxynaphthalene-1-carbothioate], the fold induction at 50 µM was found to be 22.6 in the test with riboswitch 15D10 [1] and 87.3 with riboswitch 15D10 [2].

Consider `CCc1ccc(C(=O)S/C(CCO)=C(/C)N(C=O)Cc2cnc(C)nc2N)c2ccccc12` [Compound M110, (Z)—S-(2-(N-((4-amino-2-methylpyrimidin-5-yl)methyl)formamido)-5-hydroxypent-2-en-3-yl) 4-ethylnaphthalene-1-carbothioate], for which the fold induction at 50 µM came to 65.7 in the test on riboswitch 15D10 [1] and 146 with riboswitch 15D10 [2].

As for `C/C(=C(\CCO)SC(=O)c1cccc2c(Br)cccc12)N(C=O)Cc1cnc(C)nc1N` [Compound M111, (Z)—S-(2-(N-((4-amino-2-methylpyrimidin-5-yl)methyl)formamido)-5-hydroxypent-2-en-3-yl) 5-bromonaphthalene-1-carbothioate], the fold induction at 50 µM stood at 181 with riboswitch 15D10 [1] and 175 in the test with riboswitch 15D10 [2].
